The numbers were not newly measured in patent US20240016816A1, “COMBINATION THERAPY” (priority 2017, published 2024), which cites them from elsewhere.

One series has as its system hair loss. The settings on record: clinical trials.
The next series relates to eyelashes. The conditions noted are these: patients using ophthalmic prostaglandins.

Molecules are shown by their SMILES.

As to `CC(C)(C)NC(=O)[C@H]1CC[C@H]2[C@@H]3CC[C@H]4NC(=O)C=C[C@]4(C)[C@H]3CC[C@]12C` [finasteride], in the series with hair loss, the “efficacy, monotherapy comparison minoxidil vs finasteride” value is recorded as “the more efficacious treatment option”.

As for `CCNC(=O)CCC/C=C\C[C@@H]1[C@@H](/C=C/[C@@H](O)CCc2ccccc2)[C@H](O)C[C@@H]1O` [Bimatoprost, bimatoprost], the effect on eyelashes result in the series on eyelashes was “significantly increase eyelash length”.

For the compound `CC(C)OC(=O)CCC/C=C\C[C@@H]1[C@@H](CC[C@@H](O)CCc2ccccc2)[C@H](O)C[C@@H]1O` [latanoprost], the effect on eyelashes result with eyelashes was “increase in diameter, density and length of eyelashes”.

In the case of `CC(C)OC(=O)CCC/C=C\C[C@@H]1[C@@H](/C=C/[C@@H](O)COc2cccc(C(F)(F)F)c2)[C@H](O)C[C@@H]1O` [travoprost], the effect on eyelashes result in the series on eyelashes is “increase in diameter, density and length of eyelashes”.
